One data set has as its system zebrafish Trpa1b. Briefly: Whole-cell patch-clamp of HEK293T cells expressing zebrafish Trpa1b. In kind it is cell-based. The protocol: Immortalized HEK293T cells or human colonic fibroblast cells (CCD-18Co; ATCC) were used. HEK293T cells were plated on […] cover slips and transiently transfected with 10 μg of Trpa1b plasmid (pCMV-zTrpa1b-FLAG) (SEQ ID NO:3) and 5 μg of mNeonGreen cDNA (Allele Biotechnology), then grown in a 6 cm plate for 24-48 h. CCD-18Co were cultured in Eagle's minimal essential medium with 10% FBS, 1× penicillin and streptomycin. CCD-18Co cells were plated on 12 mm cover slips and transiently transfected with 5 μg of zTrpa1b plasmid (pCMV-zTrpa1b-FLAG) together with 5 μg of mNeonGreen cDNA (Allele Biotechnology), then grown in a […] plate for 48-72 h. After this time, the cover slips were transferred to a recording chamber containing an extracellular solution composed of 145 mM sodium gluconate, 4 mM KCl, 3 mM MgCl2, 10 mM D-glucose, 10 mM HEPES; pH 7.4 adjusted with NaOH. The internal solution contained 122 mM cesium methane sulfonate, 1.8 mM MgCl2, 9 mM EGTA, 14 mM creatine phosphate (sodium salt), 4 mM Mg-ATP, 0.3 mM Na-GTP, 10 mM HEPES, pH 7.2 adjusted with CsOH. Borosilicate glass pipettes with a resistance of 3-5 MO were used. Whole cell currents were measured on an Axopatch 200B amplifier (Molecular De-vices) under the control of pClamp software. Signals were digitized through a Digidata1550B interface (Molecular Devices). Currents were filtered at 5 kHz (lowpass, Bessel) and sampled at 10 kHz prior to analysis with Clampfit software (Molecular Devices). All the plots and statistical tests were performed on Excel (Microsoft corp.). Basal Trpa1b whole cell currents were measured with a ramp protocol (˜100 to +100 mV, at a holding potential of 0 mV). Photoactive compounds were perfused into the recording chamber and a fluorescent light generated by mercury vapor short arc (U-HGLGPS, OLYMPUS) filtered through an ET-ECFP 434/17 nm filter and through a ET-mCherry 560 nm filter (Chroma Technology) was switched “on” and “off” for 10 s. All experiments were performed at room temperature. The p values were calculated using a two-tailed, paired Student's t-test.
Background: In patch-clamp work, channel activity is measured electrically.

Data set [1] can be described thus: Z→E thermal isomerisation kinetics. It is filed as physicochemical. The protocol: In order to determine the Z→E thermal isomerisation kinetics in DMSO-d6 a ˜20 mM solution of the relevant compound was irradiated using a Luzchem LZC-4V photoreactor fitted with 12×8 W LZC-420 lamps (420 nm peak emission) until no further change was observable by ^1H NMR. For 30% water:DMSO samples, a 15 μM solution of the relevant compound was irradiated in a quartz cuvette using 365 nm LEDs (3×800 mW Nichia NCSU276A) until no further change was observed by UV-Vis spectroscopy. Compounds (˜25 μM solutions in DMSO) were treated analogously. In the case of compounds studied by NMR, the change in Z-isomer percentage was followed as a function of time through integration of the relevant peaks. […]
For data collected via ^1H NMR, the natural log of the Z isomer concentration was plotted against time to yield a straight line implying first order kinetics. The gradient of this line was used to determine the rate constant for Z→E conversion from which the thermal half-life could be calculated:
For data collected via UV-Vis Spectroscopy, absorbance data at a fixed wavelength was fitted using the following, first order equation: […]
where k represents the rate constant; A∞, A0 and At are the absorbances of the pure E-state, Z-rich state, and time t, respectively. […]

Another data set concerns the target T1, human TRPA1 (Homo sapiens, UniProt O75762).
T1 construct: 2A peptide (remnant stays on the channel) (C); EGFP (separated at the 2A site) (C, cleaved yes); expressed in transfected cells; host or cells: Rohon-Beard neurons of Trpa1b−/− zebrafish embryos, in vivo
Description: Rescue experiment, Trpa1b−/− embryos expressing hTRPA1 in Rohon-beard neurons. It is filed as in vivo, zebrafish. The settings on record: 20 μM, motion within 5 s after 1 s WL3. How it is done: For Trpa1b ohnolog and paralog rescue experiments, Trpa1b^−/− embryos were injected with ngn1:zTrpa1b-2A-mCherry (partial plasmid sequence in SEQ ID NO:5), ngn1:zTrpa1a-2A-mCherry, ngn1:hTRPA1-2A-EGFP or ngn1:mTRPA1-2A-mCherry at the 1-cell stage for mosaic Rohon-beard neuron expression. Embryos were screened at 2 dpf for fluorescent expression in Rohon-beard neurons, incubated with 20 μM TRPswitch-B for 1 hr and decapitated posterior to the eyes right before experiments. NA 0.25 5× objective and 1 s WL3 light illumination was used.
To test the potential cross activity of TRPswitch-B on the zebrafish ohnolog Trpa1a and on mammalian orthologs, zebrafish Trpa1a, mouse TRPA1 or human TRPA1 were transiently re-expressed in the Rohon-beard neurons of mutant Trpa1b^−/− zebrafish and performed light-induced motion response experiments in the presence of TRPswitch-B. Rescue experiments were performed in Trpa1b^−/− zebrafish with transient mosaic re-expression of zebrafish Trpa1b (zTrpa1b), zebrafish Trpa1a (zTrpa1a), mouse TRPA1 (mTRPA1) or human TRPA1 (hTRAP1) in Rohon-beard neurons. Embryos were pre-treated with 20 μM TRPswitch-B and decapitated right before light stimulation to eliminate the light response mediated by the retina (Table 5). […]

The structures appear in SMILES notation.

T1 sequence (O75762 whole entry): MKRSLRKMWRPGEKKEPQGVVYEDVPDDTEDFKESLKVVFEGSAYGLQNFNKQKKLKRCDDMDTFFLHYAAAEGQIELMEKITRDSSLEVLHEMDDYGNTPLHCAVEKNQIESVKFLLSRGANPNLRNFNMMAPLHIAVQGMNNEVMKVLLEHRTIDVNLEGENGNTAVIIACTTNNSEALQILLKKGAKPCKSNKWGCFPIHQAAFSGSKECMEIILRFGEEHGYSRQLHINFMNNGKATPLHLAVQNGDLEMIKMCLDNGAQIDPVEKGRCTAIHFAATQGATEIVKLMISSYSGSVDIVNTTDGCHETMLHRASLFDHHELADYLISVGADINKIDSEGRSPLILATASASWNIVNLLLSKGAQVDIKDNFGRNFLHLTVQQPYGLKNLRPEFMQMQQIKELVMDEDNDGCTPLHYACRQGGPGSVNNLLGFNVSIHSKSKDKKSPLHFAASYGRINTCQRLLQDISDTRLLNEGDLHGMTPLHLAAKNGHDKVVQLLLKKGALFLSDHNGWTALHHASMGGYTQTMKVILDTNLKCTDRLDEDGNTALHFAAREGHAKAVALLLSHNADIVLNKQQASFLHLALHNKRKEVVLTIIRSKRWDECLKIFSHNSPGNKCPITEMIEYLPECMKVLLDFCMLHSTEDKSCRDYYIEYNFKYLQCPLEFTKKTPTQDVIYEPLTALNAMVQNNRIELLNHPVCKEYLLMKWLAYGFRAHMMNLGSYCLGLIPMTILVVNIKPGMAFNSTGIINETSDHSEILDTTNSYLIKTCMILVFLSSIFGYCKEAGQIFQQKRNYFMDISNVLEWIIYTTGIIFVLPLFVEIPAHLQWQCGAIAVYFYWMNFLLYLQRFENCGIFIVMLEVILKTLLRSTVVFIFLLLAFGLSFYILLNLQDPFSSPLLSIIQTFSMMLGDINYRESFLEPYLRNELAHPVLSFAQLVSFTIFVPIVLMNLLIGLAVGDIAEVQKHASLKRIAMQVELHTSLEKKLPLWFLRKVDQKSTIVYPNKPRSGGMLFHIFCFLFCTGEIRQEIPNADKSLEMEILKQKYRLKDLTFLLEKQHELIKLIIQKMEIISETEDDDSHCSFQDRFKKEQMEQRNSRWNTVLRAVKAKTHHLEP

For `Cc1nn(C)c(C)c1/N=N/c1ccc(NC(=O)c2cccs2)cc1NC(=O)c1cccs1` [Compound 9, (E)-N,N′-(4-((1,3,5-trimethyl-1H-pyrazol-4-yl)diazenyl)-1,3-phenylene)bis(thiophene-2-carboxamide)], the “current density fold increment after subsequent pulse of green light” value in the data set with zebrafish Trpa1b (+100 mV) is listed as 1.26±0.33 fold; in the data set on zebrafish Trpa1b (−100 mV), 1.41±0.38 fold. Besides, the figures for the “current density fold increment upon violet light illumination” value with zebrafish Trpa1b (+100 mV) and with zebrafish Trpa1b (−100 mV) were 2.12±0.47 fold and 2.27±0.38 fold, respectively. Also, the “thermal half-lives” value in data set [1] is listed as “long thermal half-lives”. Besides, the “% response” value at human TRPA1 was 0%.

These data come from US20220280644A1, “"TRPswitch" - A STEP FUNCTION CHEMO-OPTOGENETIC LIGAND” (UNIVERSITY OF UTAH RESEARCH FOUNDATION, priority 2019, published 2022).
